Our source for the IC50 values is patent US5411983A, “Certain hyrdoxy-phosphinyl-oxy-phenylmethyl-imidazolium hydroxide inner salts as PAF antagonists” (American Cyanamid Company, priority 1993, dated 1995).

Structures can show the parent of a compound that is named as a salt. Where two headings read alike, the source gives them in different places.

The experiment addresses PAF receptor (Oryctolagus cuniculus, UniProt G1TEI7). Kind of experiment: Inhibition of PAF induced platelet aggregation in rabbit platelet rich plasma (PRP). The format is cell-based, rabbit (male New Zealand White). On the set-up: immediately centrifuged at 800 rpm for 10 minutes at room temperature to recover the platelet rich plasma (PRP); endogenous in cells; host or cells: rabbit platelets in platelet rich plasma (male New Zealand White rabbits). As to conditions: rabbit platelet rich plasma. The protocol: Platelet activating factor (PAF) compounds were evaluated as PAF receptor antagonists in vitro by measuring inhibition of PAF induced platelet aggregation. Platelet aggregation was measured by a modification of the method of A. Wissner, et. al., J. Med. Chem., 27, 1174, 1984.
Approximately 120-240 ml of blood were collected by cardiac puncture from unanesthetized male New Zealand White rabbits (Whaley's Summit View Farms, Belvedere, N.J.) with the use of 3.2% sodium citrate anticoagulant (1 part of citrate/10 parts of blood). All syringes and pipets were plastic. The blood was gently mixed and immediately centrifuged at 800 rpm for 10 minutes at room temperature to recover the platelet rich plasma (PRP). Platelet poor plasma (PPP) was prepared by centrifuging PRP at 2800 rpm for 10 minutes at room temperature.
Dilutions (1:3000) Of PRP in Isoton diluent were made and platelet counts were determined on a Coulter Thrombocounter which was standardized with platelet reference standards (Interscience Platelet Control, Portland, Oreg.). PRP platelet counts were adjusted to 500,000 platelets/μl by the addition of PPP.
L-PAF was obtained from Calbiochem. A stock solution of 1-2 E-3M was prepared in 10% ethanol in water and serial working dilutions were made using phosphate buffered saline (PBS). 1-2 E-3M stock solutions of test compounds were prepared in 100% methanol and serially diluted in PBS. All solutions were made up in plastic tubes, stored on ice and protected from heat and light. Solutions were prepared fresh or frozen at -20° C. and used within 48 hours.
Incubation mixtures consisted of 400 μl PRP, 50 μl of PBS diluent or test compound and 50 μl of PAF agonist. More specifically, 400 μl of PRP was stabilized in a cuvette for 1-2 minutes at 37° C. in the aggregometer to achieve a stable baseline, then 50 μl of PBS or test compound, was added and incubated for 5 minutes before addition of the challenge concentration of PAF ([…], as determined from the dose response curve for PAF for that experiment). Aggregation was monitored for 5 minutes. Samples containing test compound or diluent were run simultaneously for comparison. Test compounds were initially evaluated at a screening concentration of 1E-5M. Those producing ≥ 50% inhibition of the magnitude of aggregation were then reevaluated in a dose response fashion (final concentrations 1E-7M to 5E-5M) and IC50 values were determined. Ki values were also calculated in some cases from [formula] where Ki =inhibitory constant
IC50 =molar concentration of test compound which gives 50% inhibition
[PAF]=molar concentration of PAF used as challenges
EC50 =molar concentration of PAF which gives 50% of maximal aggregation.
The recording equipment consisted of single or dual channel Chronolog aggregometers connected to dual channel 10 MV full scale deflection Omniscribe chart recorders (Houston Instruments). […] The bead suspension was used to set the 0% light transmission mark and clear water was used to set the 100% light transmission mark. These limits defined a full scale deflection. The aggregation traces were analyzed by a digitizing method (C. Kohler and B. Zoltan, J. Pharm. Methods, 12, 113, 1984) with x, y coordinate data stored in a computer file. A suitable program computed parameters of interest such as the magnitude of aggregation.

The mark [1] stands for this setting: PAF challenge 5E-8M, read-out: IC50 (M) PRP, inhibition of PAF-induced platelet aggregation.
Setting [2] is: IC50 (M) PRP, inhibition of PAF-induced platelet aggregation, PAF challenge 5E-8M.
The mark [3] stands for this setting: IC50 (M) PRP, inhibition of PAF-induced platelet aggregation, PAF challenge 1E-6M.
Where [4] appears, read: IC50 (M) PRP, inhibition of PAF-induced platelet aggregation, PAF challenge 1E-7M.
Where [5] appears, read: PAF challenge 1E-7M, read-out: IC50 (M) PRP, inhibition of PAF-induced platelet aggregation.
[6] abbreviates: PAF challenge 1E-6M, read-out: IC50 (M) PRP, inhibition of PAF-induced platelet aggregation.

Sequence of PAF receptor (G1TEI7 1-342): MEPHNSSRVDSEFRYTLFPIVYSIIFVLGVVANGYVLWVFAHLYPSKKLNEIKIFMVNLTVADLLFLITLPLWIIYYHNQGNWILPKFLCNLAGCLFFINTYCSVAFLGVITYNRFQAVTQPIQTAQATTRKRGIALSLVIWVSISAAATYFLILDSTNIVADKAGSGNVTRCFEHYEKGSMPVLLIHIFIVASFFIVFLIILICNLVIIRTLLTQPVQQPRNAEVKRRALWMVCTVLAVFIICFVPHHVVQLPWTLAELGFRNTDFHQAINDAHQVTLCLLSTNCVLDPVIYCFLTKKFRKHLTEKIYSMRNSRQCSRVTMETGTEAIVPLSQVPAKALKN

Turning to `CCCCCCCCCCCCCCCCOCC(COC(=O)c1cccc(C[n+]2ccccn2)c1)OC` (centres unmarked) [1-[[3-[[3-(Hexadecyloxy)-2-methoxypropoxy]carbonyl]phenyl]methyl]pyridazinium, bromide], under setting [1], the IC50 (in general, the point on the concentration scale where inhibition reaches its midpoint) is 1.1e-05 M.
On the same count and under the same terms, next, `CCCCCCCCCCCCCCCCOCC(COCc1cccc(Cn2ccnc2)c1)OC` (centres unmarked) [1-[[3-[[3-(Hexdecyloxy)-2-methoxypropoxy]methyl]phenyl]methyl]-1H-imidazole]: 5.8e-05 M.
`CCCCCCCCCCCCCCCCCCOP(=O)([O-])Oc1cccc(C[n+]2ccccc2)c1` [1-[[3-[[Hydroxy(octadecyloxy)phosphinyl]oxy]phenyl]methyl]pyridinium, hydroxide, inner salt] came in with an IC50 under setting [2] of 4.2e-05 M.
The compound `CCCCCCCCCCCCCCc1cccc(OCC(COP(=O)([O-])Oc2cccc(C[n+]3ccccc3)c2)OC)c1` (centres unmarked) [1-[[3-[[Hydroxy[2-methoxy-3-(3-tetradecylphenoxy)propoxy]phosphinyl]oxy]phenyl]methyl]pyridinium, hydroxide, inner salt] came in with an IC50 under setting [3] of 5.3e-05 M, an IC50 under setting [4] of 5.4e-06 M and a concentration for half-maximal inhibition (IC50) under setting [2] of 4.1e-06 M.
For `CCCCCCCCCCCCCCCCOCC(COP(=O)([O-])Oc1cccc(C[n+]2ccccc2)c1)OC` (centres unmarked) [1-[[3-[[[3-(Hexadecyloxy)-2-methoxypropoxy]hydroxyphosphinyl]oxy]phenyl]methyl]pyridinium, hydroxide, inner salt] the same measures were 0.00018 M, 1e-05 M and 5.78e-06 to 6e-06 M.
Under setting [2], `CCCCCCCCCCCCOc1cccc(OCC(COP(=O)([O-])Oc2cccc(C[n+]3ccccc3)c2)OC)c1C` (centres unmarked) [1-[[3-[[[3-[3-(Dodecyloxy)-2-methylphenoxy]-2-methoxypropoxy]hydroxyphosphinyl]oxy]phenyl]methyl]pyridinium, hydroxide, inner salt] yielded an IC50 of 1.7e-07 M.
Turning to `CCCCCCCCCCCCOc1cccc(OCC(COP(=O)([O-])Oc2cccc(C[n+]3cccc4ccccc43)c2)OC)c1C` (centres unmarked) [1-[[3-[[[3-[3-(Dodecyloxy)-2-methylphenoxy]-2-methoxypropoxy]hydroxyphosphinyl]oxy]phenyl]methyl]quinolinium, hydroxide, inner salt], the IC50 by setting is: under setting [4], 1.2e-05 M; under setting [2], 7.3e-05 M.
For the compound `CCCCCCCCCCCCCCCCCCNC(=O)OCC(COP(=O)([O-])Oc1cccc(C[N+](C)(C)C)c1)OC` (centres unmarked) [3-[(1-(Hydroxy-4-methoxy-7-oxo-2,6-dioxa-8-aza-1-phosphahexacosyl)oxy]- --N, --N, --N-trimethylbenzenemethanaminium, hydroxide, inner salt, P-oxide], under setting [2], the IC50 is 0.0001 M.
Consider `C=C(C)COC(COCCCCCCCCCCCCCCCC)COP(=O)([O-])Oc1ccccc1C[n+]1ccsc1` (centres unmarked) [3-[[2-[[[3-(Hexadecyloxy)-2-[(2-methyl-2-propenyl)oxy]propoxy]hydroxyphosphinyl]oxy]phenyl]methyl]thiazolium, hydroxide, inner salt], for which, under setting [2], the IC50 was found to be 2.6e-06 M.
As for `CCCCCCCCCCCCCCCCOCC(COC(=O)c1cccc(C[N+](C)(C)C)c1)OC` (centres unmarked) [3-[[3-(Hexadecyloxy)-2-methoxypropoxy]-carbonyl]- --N, --N, --N-trimethylbenzenemethanaminium, bromide], the IC50 came to 3e-05 M under setting [5] and 3.1e-05 M under setting [1].
Consider `CCCCCCCCCCOCCOCCOCC(COP(=O)([O-])Oc1cccc(C[n+]2ccsc2)c1)OC` (stereo not drawn) [3-[[3-[(1-Hydroxy-4-methoxy-2,6,9,12-tetraoxa-l-phosphadocos-l-yl)oxy]-phenyl]methyl]thiazolium, hydroxide, inner salt, P-oxide], for which the IC50 under setting [2] stood at 8.3e-06 M.
Same read-out and setting: next, `CCCCCCCCCCCCCCCCCCNC(=O)OCC(COP(=O)([O-])Oc1cccc(C[n+]2ccccc2)c1)OC` (centres unmarked) [3-[[3-[(1-Hydroxy-4-methoxy-7-oxo-2,6-dioxa-8-aza-1-phosphahexacosyl)oxy]phenyl]methyl]pyridinium, hydroxide, inner salt, P-oxide]: 4.4e-06 M.
On the same count and under the same terms, next, `COC(COCc1ccc(OCc2ccccc2)cc1)COP(=O)([O-])Oc1cccc(C[n+]2ccsc2)c1` (centres unmarked) [3-[[3-[(Hydroxy[2-methoxy-3-[[4-(phenylmethoxy)phenyl]methoxy]propoxy]phosphinyl]oxy]phenyl]methyl)thiazolium, hydroxide, inner salt]: 0.0004 M.
As to `CCCCCCCCCCOCCOCCOCC(COP(=O)([O-])Oc1cccc(C[n+]2csc(C)c2)c1)OC` (centres unmarked) [3-[[3-[[1-Hydroxy-4-methoxy-2,6,9,12-tetraoxa-1-phosphadocosyl]oxy]phenyl]-methyl]-5-methylthiazolium, hydroxide, inner salt, P-oxide], half-maximal inhibition under setting [3] (IC50) required 9.4e-05 M, the IC50 under setting [4] came out at 3.9e-06 M and half-maximal inhibition under setting [2] (IC50) required 2.2e-06 M.
`CCCCCCCCCCCCCCCCOCC(COC(=O)c1cccc(C[n+]2ccsc2)c1)OC` (centres unmarked) [3-[[3-[[3-(Hexadecyloxy)-2-methoxypropoxy]carbonyl]phenyl]methyl]thiazolium, bromide]: the IC50 is 4.9e-05 M under setting [6], 6.1e-06 M under setting [5] and 3.6e-06 M under setting [1].
On the same counts, the results for `CCCCCCCCCCCCCCCCOCC(COCc1cccc(C[n+]2ccsc2)c1)OC` (centres unmarked) [3-[[3-[[3-(Hexadecyloxy)-2-methoxypropoxy]methyl]phenyl]methyl]thiazolium bromide] are 2.6e-05 M, 3.7e-06 M and 1.3e-06 M.
As for `CCCCCCCCCCCCCCCCCCOP(=O)([O-])Oc1cccc(C[n+]2ccsc2)c1` [3-[[3-[[Hydroxy(octadecyloxy)phosphinyl]oxy]phenyl]methyl]thiazolium, hydrozide, inner salt], half-maximal inhibition under setting [2] (IC50) required 2.2e-05 M.
On to `COC(CCCOCc1ccccc1)COP(=O)([O-])Oc1cccc(C[n+]2ccsc2)c1` (centres unmarked) [3-[[3-[[Hydroxy[[5-(phenylmethoxy)-2-methoxypentyl]oxy]phosphinyl]oxy]-phenyl]methyl]thiazolium, hydroxide, inner salt], for which, under setting [2], the IC50 came to 0.0001 M.
Regarding `C=C(C)COC(COCCCCCCCCCCCCCCCC)COP(=O)([O-])Oc1cccc(C[n+]2ccsc2)c1` (centres unmarked) [3-[[3-[[[3-(Hexadecyloxy)-2-[(2-methyl-2-propenyl)oxy]propoxy]hydroxyphosphinyl]oxy]phenyl]methyl]thiazolium, hydroxide, inner salt], the IC50 runs as follows: under setting [3], 3.9e-05 M; under setting [4], 2.6e-06 M; under setting [2], 2.1e-06 M.
For the compound `CCCCCCCCCCCCOc1cccc(OCC(COP(=O)([O-])Oc2cccc(C[n+]3csc(CCO)c3C)c2)OC)c1C` (centres unmarked) [3-[[3-[[[3-[3-(Dodecyloxy)-2-methyl-phenoxy]-2-methoxypropoxy]hydroxyphosphinyl]oxy]phenyl]methyl)-5-(2-hydroxyetbyl)-4-methylthiazolium, hydroxide, inner salt], the IC50 under setting [2] is 1.7e-05 M.
As for `CCCCCCCCCCCCOc1cccc(OCC(COP(=O)([O-])Oc2cccc(C[n+]3csc(C)c3)c2)OC)c1C` (centres unmarked) [3-[[3-[[[3-[3-(Dodecyloxy]-2-methylphenoxy]-2-methoxypropoxy]hydroxyphosphinyl]oxy]phenyl]methyl]-5-methylthiazolium, hydroxide, inner salt], the IC50 by setting is: under setting [3], 3e-05 M; under setting [4], 2e-06 M; under setting [2], 9.3e-07 M.
`COC(COCc1ccc(OCc2ccc(Cl)cc2)cc1)COP(=O)([O-])Oc1cccc(C[n+]2ccsc2)c1` (centres unmarked) [3-[[3-[[[3-[[4-[(4-Chlorophenyl)methoxy]phenyl]methoxy]-2-methoxypropoxy]hydroxyphosphinyl]oxy]phenyl]methyl]thiazolium, hydroxide, inner salt] displayed an IC50 under setting [2] of 3e-05 M.
